Reference: patent US7524849B2, “5-arylpyrimidines as anticancer agents” (Wyeth Holdings Corporation, priority 2003, dated 2009)

Test system: COLO 205 cells
Assay: MTS cytotoxicity test with COLO 205 cells
Format: cell-based, human
Details: Homo sapiens, 72 h, three days with compound
Procedure: The assay, which is sold in kit form by Promega (Madison, Wis.; CellTiter 96 AQueous Non-Radioactive Cell Proliferation Assay), is based on the conversion by viable cells, but not by dead cells, of the tetrazolium salt, MTS (3-(4,5-dimethylthiazol-2-yl)-5-(3-carboxymethoxyphenyl)-2-(4-sulphophenyl)-2H-tetrazolium, inner salt), into a water-soluble colored formazan which is detected by spectrophotometry. Compounds are tested at nine concentrations, in order to determine IC50 values. For the test procedure, cells are harvested by trypsinization, washed, counted and distributed to wells of 96-well flat-bottom microtiter plates at 1000 cells per well in 200 μL of medium. In addition, one row of wells on a separate plate receives cells as above (“time 0” plate). All plates are incubated at 37° in humidified 5% CO2 in air for about 24 hr.
On day 2, compounds for test are diluted and added to wells. Compounds are dissolved in DMSO at 10 mg/mL. For each compound, nine serial 2-fold dilutions are prepared in DMSO. Ten μL of each dilution in DMSO are transferred to 100 μL of medium, mixed well, and then 5 μL of this dilution are transferred in quadruplicate to wells containing cells. The final high concentration of each compound is typically 5 μM. Plates are returned to the incubator for three days. At the time of drug addition to the experimental plates, the MTS assay is run on the “time 0” plate. This produces the “time 0 MTS value” which is related to the number of viable cells per well at the time of drug addition.
After three days of culture with test compounds (day 5 overall), the MTS assay is done on all wells of the experimental plates. The absorbance values of the quadruplicate sample wells are averaged and divided by the average of the “time 0” values. The average of control wells without drug, divided by the average “time 0” value, gives the maximal relative increase in MTS color yield due to cell growth during the final three days of culture. The average of control wells with high drug concentration, divided by the “time 0” value, gives the minimal relative color yield for cells that were completely killed. The nine values for each compound are plotted against concentration, and the concentration that produces a relative color yield half way between the maximum and minimum is taken as the IC50 value.
COLO 205 is a human colon carcinoma cell line that is used for comparative testing of the examples of this invention and several reference compounds. This line is sensitive to paclitaxel and vincristine.

Compared with `CNCCCOc1cc(F)c(-c2c(Cl)nc(-c3cnccn3)nc2N[C@@H](C)C(F)(F)F)c(F)c1` [Example 24, 6-Chloro-5-{2,6-difluoro-4-[3-(methylamino)propoxy]phenyl}-2-pyrazin-2-yl-N-[(1S)-2,2,2-trifluoro-1-methylethyl]pyrimidin-4-amine], `C[C@H](Nc1nc(-c2cnccn2)nc(Cl)c1-c1c(F)cc(F)cc1F)C(F)(F)F` [Example 3, 6-Chloro-2-pyrazin-2-yl-N-[(1S)-2,2,2-trifluoro-1-methylethyl]-5-(2,4,6-trifluorophenyl)pyrimidin-4-amine] is 7.4-fold higher in IC50: 6.9 nM for the first, 51 nM for the second.

Compared with `O=[N+]([O-])c1ccc(-c2nc(Cl)c(-c3c(F)cc(F)cc3F)c(NCC(F)(F)F)n2)nc1` [Example 37, 6-Chloro-2-(5-nitropyridin-2-yl)-N-(2,2,2-trifluoroethyl)-5-(2,4,6-trifluorophenyl)pyrimidin-4-amine], `Fc1cc(F)c(-c2c(Cl)nc(-c3ccccn3)nc2NCC(F)(F)F)c(F)c1` [Example 8, 6-Chloro-2-pyridin-2-yl-N-(2,2,2-trifluoroethyl)-5-(2,4,6-trifluorophenyl)pyrimidin-4-amine] is 3.4-fold lower in IC50: 132 nM for the first, 39 nM for the second. The second is the more potent here.

`CN(C)CCCCOc1cc(F)c(-c2c(Cl)nc(-c3cnccn3)nc2NCC(F)(F)F)c(F)c1` [Example 28, 6-Chloro-5-{4-[4-(dimethylamino)butoxy]-2,6-difluorophenyl}-2-pyrazin-2-yl-N-(2,2,2-trifluoroethyl)pyrimidin-4-amine] and `CN(C)CCCOc1cc(F)c(-c2c(Cl)nc(-c3cnccn3)nc2NCC(F)(F)F)c(F)c1` [Example 25, 6-Chloro-5-{4-[3-(dimethylamino)propoxy]-2,6-difluorophenyl}-2-pyrazin-2-yl-N-(2,2,2-trifluoroethyl)pyrimidin-4-amine] are within 1.5-fold of each other in IC50: 32 nM for the first, 22 nM for the second.

First: CN(C)CCOc1cc(F)c(-c2c(Cl)nc(-c3cnccn3)nc2NCC(F)(F)F)c(F)c1 [Example 27, 6-Chloro-5-{4-[2-(dimethylamino)ethoxy]-2,6-difluorophenyl}-2-pyrazin-2-yl-N-(2,2,2-trifluoroethyl)pyrimidin-4-amine]
Second: CN(C)CCCOc1cc(F)c(-c2c(Cl)nc(-c3ncccn3)nc2NCC(F)(F)F)c(F)c1 [Example 26, 6-Chloro-5-{4-[3-(dimethylamino)propoxy]-2,6-difluorophenyl}-N-(2,2,2-trifluoroethyl)-2,2′-bipyrimidin-4-amine]
The IC50 of the first is 2.6-fold higher: 128 nM for the first, 49 nM for the second.

Going from `Fc1cc(F)c(-c2c(Cl)nc(-c3ccco3)nc2NCC(F)(F)F)c(F)c1` [Example 14, 6-Chloro-2-(2-furyl)-N-(2,2,2-trifluoroethyl)-5-(2,4,6-trifluorophenyl)pyrimidin-4-amine] to `Fc1cc(F)c(-c2c(Cl)nc(-c3ccc[nH]3)nc2NCC(F)(F)F)c(F)c1` [Example 35, 6-Chloro-2-(1H-pyrrol-2-yl)-N-(2,2,2-trifluoroethyl)-5-(2,4,6-trifluorophenyl)pyrimidin-4-amine], the IC50 rises from 232 nM to 7030 nM (30-fold).

Going from `Fc1cc(F)c(-c2c(Cl)nc(-c3cccs3)nc2NCC(F)(F)F)c(F)c1` [Example 13, 6-Chloro-2-thien-2-yl-N-(2,2,2-trifluoroethyl)-5-(2,4,6-trifluorophenyl)pyrimidin-4-amine] to `Fc1cc(F)c(-c2c(Cl)nc(-c3ccncc3)nc2NCC(F)(F)F)c(F)c1` [Example 6, 6-Chloro-2-pyridin-4-yl-N-(2,2,2-trifluoroethyl)-5-(2,4,6-trifluorophenyl)pyrimidin-4-amine], the IC50 rises from 3460 nM to 7050 nM (2-fold). The first is the more potent here.

Going from `Fc1cc(F)c(-c2c(Cl)nc(-n3cccn3)nc2NCC(F)(F)F)c(F)c1` [Example 16, 6-Chloro-2-(1H-pyrazol-1-yl)-N-(2,2,2-trifluoroethyl)-5-(2,4,6-trifluorophenyl)pyrimidin-4-amine] to `Fc1cc(F)c(-c2c(Cl)nc(-n3cccc3)nc2NCC(F)(F)F)c(F)c1` [Example 18, 6-Chloro-2-(1H-pyrrol-1-yl)-N-(2,2,2-trifluoroethyl)-5-(2,4,6-trifluorophenyl)pyrimidin-4-amine], the IC50 rises from 53 nM to 7080 nM (130-fold). The first is the more potent here.

First: Fc1cc(F)c(-c2c(Cl)nc(-c3ncccn3)nc2NCC(F)(F)F)c(F)c1 [Example 5, 6-Chloro-N-(2,2,2-trifluoroethyl)-5-(2,4,6-trifluorophenyl)-2,2′-bipyrimidin-4-amine]
Second: Fc1cc(F)c(-c2c(Cl)nc(-c3cnccn3)nc2NCC(F)(F)F)c(F)c1 [Example 4, 6-Chloro-2-pyrazin-2-yl-N-(2,2,2-trifluoroethyl)-5-(2,4,6-trifluorophenyl)pyrimidin-4-amine]
The IC50 of the first is 3.2-fold higher: 265 nM for the first, 84 nM for the second. The second is the more potent here.

Going from `CN(C)CCOc1cc(F)c(-c2c(Cl)nc(N(C)C#N)nc2NCC(F)(F)F)c(F)c1` [Example 22, 4-Chloro-5-{4-[2-(dimethylamino)ethoxy]-2,6-difluorophenyl}-6-[(2,2,2-trifluoroethyl)amino]pyrimidin-2-yl(methyl)cyanamide] to `CN(C)CCCOc1cc(F)c(-c2c(Cl)nc(-c3ccc(N=[N+]=[N-])cn3)nc2NCC(F)(F)F)c(F)c1` [Example 38, 2-(5-Azidopyridin-2-yl)-6-chloro-5-{4-[3-(dimethylamino)propoxy]-2,6-difluorophenyl}-N-(2,2,2-trifluoroethyl)pyrimidin-4-amine], the IC50 falls from 532 nM to 23 nM (23-fold). The second is the more potent here.

Going from `Fc1cc(F)c(-c2c(Cl)nc(-c3ccc4ccccc4n3)nc2NCC(F)(F)F)c(F)c1` [Example 10, 6-Chloro-2-quinolin-2-yl-N-(2,2,2-trifluoroethyl)-5-(2,4,6-trifluorophenyl)pyrimidin-4-amine] to `Fc1cc(F)c(-c2c(Cl)nc(-c3cc4ccccc4cn3)nc2NCC(F)(F)F)c(F)c1` [Example 12, 6-Chloro-2-isoquinolin-3-yl-N-(2,2,2-trifluoroethyl)-5-(2,4,6-trifluorophenyl)pyrimidin-4-amine], the IC50 falls from 250 nM to 119 nM (2.1-fold).

Compared with `Fc1cc(F)c(-c2c(Cl)nc(-c3cccnc3)nc2NCC(F)(F)F)c(F)c1` [Example 7, 6-Chloro-2-pyridin-3-yl-N-(2,2,2-trifluoroethyl)-5-(2,4,6-trifluorophenyl)pyrimidin-4-amine], `Cc1ccnc(-c2nc(Cl)c(-c3c(F)cc(F)cc3F)c(NCC(F)(F)F)n2)c1` [Example 36, 6-Chloro-2-(4-methylpyridin-2-yl)-N-(2,2,2-trifluoroethyl)-5-(2,4,6-trifluorophenyl)pyrimidin-4-amine] is 36-fold lower in IC50: 3930 nM for the first, 109 nM for the second. The second is the more potent here.

Compared with `Fc1cc(F)c(-c2c(Cl)nc(-c3nccc4ccccc34)nc2NCC(F)(F)F)c(F)c1` [Example 11, 6-Chloro-2-isoquinolin-1-yl-N-(2,2,2-trifluoroethyl)-5-(2,4,6-trifluorophenyl)pyrimidin-4-amine], `Cn1ccnc1-c1nc(Cl)c(-c2c(F)cc(F)cc2F)c(NCC(F)(F)F)n1` [Example 34, 6-Chloro-2-(1-methyl-1H-imidazol-2-yl)-N-(2,2,2-trifluoroethyl)-5-(2,4,6-trifluorophenyl)pyrimidin-4-amine] is 61-fold lower in IC50: 4680 nM for the first, 77 nM for the second.

Work on `C[C@H](Nc1nc(-c2ccccn2)nc(Cl)c1-c1c(F)cc(F)cc1F)C(F)(F)F` [Example 9, 6-Chloro-2-pyridin-2-yl-N-[(1S)-2,2,2-trifluoro-1-methylethyl]-5-(2,4,6-trifluorophenyl)pyrimidin-4-amine] yielded an IC50 of 29 nM.

Same assay, conditions: three days with compound

“4-Chloro-6-[(2,2,2-trifluoroethyl)amino]-5-(2,4,6-trifluorophenyl)pyrimidin-2-yl]ethylcyanamide [Example 2]” showed an IC50 of 304 nM.
